A short description of the series: Human HepG2 cell viability assay in 384 well format. The class given is toxicity, cell-based. More on the design: dose 125 nL, time 70.5 hour; concentration not given beside the values. To be noted: HepG2 cells, read-out: Inhibition.

Among the data in ChEMBL document CHEMBL3507680, “University of Dundee, Gates Library screen for HepG2 cell viability” are cytotoxicity values, retold here.

On to `CCOC(C)c1nc(CN2CCNCC2)cs1` (stereo unspecified), for which the cytotoxicity at 70.5 h stood at 10.9%.
The same measure for `COCCn1cc(C(=O)N2CCCC2c2cccc(F)c2)ccc1=O` (stereo unspecified): -4.27%.
The same measure for `O=C(NCc1ccccc1CN1CCC(O)CC1)Nc1cccnc1`: -4.5%.
Consider `Cc1nn(C)c(C)c1CNC1CCOc2ccccc21` (stereo unspecified), for which the cytotoxicity at 70.5 h was -8.58%.
Under `CCCc1noc(CCC(=O)NC(C)c2nnc3n2CCCCC3)n1` (stereo unspecified) stands -9.55%.
The same measure for `O=C(C1CCCc2[nH]ncc21)N1CCCCCC1` (stereo unspecified): -7.74%.
The same measure for `CCNC(=O)CN1CCCN(C(=O)C2CCCc3[nH]ncc32)CC1` (stereo unspecified): -8.68%.
In the case of `CCC(CC)c1cc(CNC(=O)N2CCCC(N(C)C)C2)on1` (stereo unspecified), the cytotoxicity at 70.5 h is -9.56%.
`CCOC(=O)NC(CNC(=O)c1ccccn1)CC(C)C` (stereo unspecified): the cytotoxicity at 70.5 h is -4.75%.
For the compound `CN1CCN(Cc2ccccc2CNC(=O)c2ccc(Br)cc2)CC1`, the cytotoxicity at 70.5 h was -7.15%.
Under `CCN(CC(=O)NC)S(=O)(=O)N1CCCCCC1` stands -10.4%; under `Cc1cc(S(=O)(=O)Nc2cccc(-n3cccc3)c2)sc1C(=O)O`, -13%; under `O=C(NC1CCS(=O)(=O)C1)c1sccc1-c1ccc(F)cc1` (stereo unspecified), -7.53%.
The same measure for `COc1c(CNC2CCCc3ccccc32)c(C)nn1C` (stereo unspecified): -8%; for `O=C(NCC1CCS(=O)(=O)C1)c1sccc1-c1ccc(F)cc1` (stereo unspecified): 8.07%; for `COc1ccnc(N2CCN(C(=O)c3csc(C4CC4)n3)CC2)n1`: -6.71%.
Under `O=C(NCC1CC1)Nc1cccc(N2CCN(CC3CC3)CC2)c1` stands -0.269%; under `COCc1cccc(NC(C)C(=O)N(C)Cc2ccccc2)c1` (stereo unspecified), 10.7%; under `Cc1cnn(CC2CN(CCS(=O)(=O)c3ccccc3)CCO2)c1` (stereo unspecified), -9.7%.
As for `Cc1cn(CC(=O)NC2CCN(S(C)(=O)=O)CC2)c2ccccc12`, the cytotoxicity at 70.5 h was -4.04%.
For the compound `Cc1cnn(CC2CN(CCN3CCCC3=O)CCO2)c1` (stereo unspecified), the cytotoxicity at 70.5 h is -11.5%.
Under `Cc1cnc(NC(=O)N2CCCC2)s1` stands -12%.
In the case of `COc1ccc(F)cc1C(C)NC(=O)c1nnc(C)s1` (stereo unspecified), the cytotoxicity at 70.5 h was -5.29%.
Take `CC(O)CC(C)(C)CNC(=O)NCc1cccc(-n2ccnc2)c1` (stereo unspecified): the cytotoxicity at 70.5 h is -7.65%.
Under `O=C(C1CCCc2[nH]ncc21)N1CCCC1` (stereo unspecified) stands -4.89%; under `CCN(CC(=O)NC(C)C)S(=O)(=O)N1CCC(C)C1` (stereo unspecified), -6.99%.
For `CC(=O)N1CCN(Cc2nnc(C(C)(C)C)o2)CC1`, the cytotoxicity at 70.5 h is -8.04%.
The same measure for `CNC(=O)CS(=O)(=O)Cc1coc(-c2ccc(OC)cc2)n1`: -12.7%; for `CNC(=O)CS(=O)(=O)Cc1coc(-c2ccc(F)cc2)n1`: -9.1%.
Under `CC(C)(C)c1nc(CN2CCC(c3nc4cc(Cl)ccc4o3)CC2)no1` stands 15.4%.
`CCNC(=O)N1CCCCC1CCNS(C)(=O)=O` (stereo unspecified): the cytotoxicity at 70.5 h is -10.5%.
For `CN(C)C1CCN(C(=O)NCc2ccccc2Cn2cncn2)CC1`, the cytotoxicity at 70.5 h is -11.6%.
The same measure for `CN(C)C1CCN(C(=O)NCc2ccc(Cn3cncn3)cc2)CC1`: 14.8%; for `CCOC(CC)C(=O)NCc1ccnc(Oc2ccc(F)cc2)c1` (stereo unspecified): -7.99%; for `Cc1ccc(NC(=O)NC(C)C(=O)N2CCS(=O)(=O)CC2)cc1` (stereo unspecified): -7.48%.
Regarding `O=C(NCCNCC1CNc2ccnn2C1)c1ccc(F)cc1` (stereo unspecified), the cytotoxicity at 70.5 h is -6.67%.
Under `CCOc1ccc(C(=O)NS(=O)(=O)c2cncc(Br)c2)cc1OC` stands 18.9%.
On to `CC(NC(=O)COc1nc(C(C)(C)C)no1)c1ccco1` (stereo unspecified), for which the cytotoxicity at 70.5 h was -6.24%.
`CN(Cc1ccc(OC(F)F)cc1)C(=O)CS(=O)(=O)c1ccc(Cl)cc1`: the cytotoxicity at 70.5 h was -9.26%.
Under `CC(C)NC(=O)COc1nc(C(C)(C)C)no1` stands -6.41%; under `Cc1ccc(CC(=O)NC(C)C(=O)N2CCS(=O)(=O)CC2)cc1` (stereo unspecified), -2.68%.
Consider `Cn1cccc1C(=O)N1CCC2(CC1)CN(c1ccsc1)C(=O)CO2`, for which the cytotoxicity at 70.5 h is -15.9%.
The same measure for `CC(=O)NCC(=O)N1C[C@@H](C)[C@@]2(CCN(c3ccsc3)C2=O)C1`: -10.5%; for `Cc1nc(NCC2CC2)nc2c1COCC21CCN(C(=O)NC(C)C)C1` (stereo unspecified): -5.59%.
For `O=C(c1ccccn1)N1CCC2(CC1)CN(c1cncnc1)C(=O)CO2`, the cytotoxicity at 70.5 h is -12.2%.
`O=C(c1cscn1)N1CCC[C@]2(C[C@@H](OCC3CC3)CO2)C1`: the cytotoxicity at 70.5 h is -11%.
In the case of `C[C@H]1C[C@H]2CN(C(=O)CCc3ccccc3)CC[C@H]2O1`, the cytotoxicity at 70.5 h is -11.5%.
The same measure for `COCCC1COC2(CCN(C(=O)Cc3ccccc3)CC2)C1` (stereo unspecified): -13.5%; for `O=C(CC1CC1)N1CCC2(CC1)CN(c1ncc(F)cn1)CCO2`: -9.05%; for `COCC1CN(C(=O)CC2Cc3ccccc3C2)Cc2c1cnn2C` (stereo unspecified): -5.66%.
For the compound `CCc1ncnc2c1CCN(C(=O)c1cccn1C)CC2`, the cytotoxicity at 70.5 h stood at 20.2%.
Under `O=C(Cc1ccccc1)N1CCC2(CC1)CN(c1ncccn1)CCO2` stands -9.68%; under `c1ccc(COC[C@@H]2CC[C@H]3[C@H](CCN3c3ncccn3)O2)nc1`, -9.8%.
As to `CC(C)N(C)[C@@H]1CCN(C(=O)c2ccc[nH]2)[C@H]1Cc1cnn(C)c1`, the cytotoxicity at 70.5 h was -8.9%.
Under `Cn1cc(C[C@H]2[C@@H](OCC3CC3)CCN2C(=O)c2ccc[nH]2)cn1` stands 21.2%; under `COCCO[C@@H]1CCN(C(=O)c2ccc[nH]2)[C@H]1Cc1cnn(C)c1`, -7.64%.
For `CCOCC1CN(C(=O)Cc2ccccn2)Cc2c1cnn2CC` (stereo unspecified), the cytotoxicity at 70.5 h turned out to be 23.4%.
Consider `CC(C)N1CCC2(CC1)CC(c1cccnc1)C(=O)N2` (stereo unspecified), for which the cytotoxicity at 70.5 h was -10.2%.
Consider `O=C(c1cscn1)N1C[C@H]2CN(Cc3nccs3)C[C@H]2C1`, for which the cytotoxicity at 70.5 h was -1.36%.
With `CCOCc1ncn2c1CN(C(=O)c1ccoc1)CC2`, the cytotoxicity at 70.5 h is -12.2%.
In the case of `O=C(c1ccc[nH]1)N1CCCn2cnc(COCC3CC3)c2C1`, the cytotoxicity at 70.5 h was -9.86%.
With `O=C(c1cccs1)N1CCc2ncnc(C3CCOC3)c2CC1` (stereo unspecified), the cytotoxicity at 70.5 h was -14.6%.
`O=C(c1cccs1)N1CCCn2cnc(COCC3CC3)c2C1`: the cytotoxicity at 70.5 h was -12.8%.
Regarding `Cc1occc1C(=O)N1CCc2ncnc(C3CCOC3)c2CC1` (stereo unspecified), the cytotoxicity at 70.5 h was -12.9%.
The same measure for `O=C(c1ccco1)N1CCCn2cnc(COCC3CC3)c2C1`: -7.39%; for `O=C(c1cscn1)N1CCC2(CCN(Cc3nccs3)CC2)CC1`: -14.7%.
Turning to `CCS(=O)(=O)N1CC[C@H]2OCC[C@@]2(C(=O)NC)C1`, the cytotoxicity at 70.5 h is -9.74%.
The same measure for `CNC(=O)[C@@]12CCO[C@@H]1CCN(S(=O)(=O)c1ccccc1F)C2`: -13.3%.
The same measure for `COCCC1COC2(CCN(C(=O)c3ccncc3)CC2)C1` (stereo unspecified): 30.8%; for `CCO[C@@H]1CCN(C(=O)c2ccc[nH]2)[C@@H]1Cc1cccnc1`: -6.51%.
For `Cc1nc(COC[C@H]2CC[C@H]3[C@H](CCN3c3ncccn3)O2)cs1`, the cytotoxicity at 70.5 h is -6.71%.
With `Cn1nc(Cn2ccnc2)c2c1CN(C(=O)c1ccoc1)C2`, the cytotoxicity at 70.5 h is -9.72%.
Take `O=C(c1ccc(F)cc1)N1CC[C@H]2[C@H]1CCN2CC1CCOCC1`: the cytotoxicity at 70.5 h was -6.57%.
Under `Cc1cccc(C(=O)N2CCc3ncnc(C4CCOC4)c3CC2)n1` (stereo unspecified) stands -0.465%; under `Cn1cc(N2C(=O)CC[C@@H]3[C@H]2CCN3C(=O)c2cscn2)cn1`, -10.2%; under `Cc1cccc(N2CC3(CCN(Cc4nccn4C)C3)CC2=O)c1` (stereo unspecified), -8.56%.
Under `Cn1ccnc1CN1CCC2(CC(=O)N(c3ccc4c(c3)OCO4)C2)C1` (stereo unspecified) stands -17.1%.
The same measure for `Cc1oncc1C(=O)N1CC[C@H]2[C@@H]1CCC(=O)N2c1cccnc1`: -14.4%; for `O=C(c1cscn1)N1CCC2(CN(Cc3nccs3)C2)C1`: -11.9%; for `Cn1cc(CN2CC[C@@H]3[C@@H]2CCN3C(=O)Cc2cccc(F)c2)cn1`: -4.59%.
For `O=C(c1cccnc1)N1CCc2ncnc(N3CCOCC3)c2CC1`, the cytotoxicity at 70.5 h was -7.42%.
As to `Cn1cc(CN2CC[C@@H]3[C@@H]2CCN3C(=O)c2cccc(F)c2)cn1`, the cytotoxicity at 70.5 h is -14.7%.
Consider `CN(C)CCN1C2(CCN(Cc3nccs3)C2)c2ccccc2S1(=O)=O` (stereo unspecified), for which the cytotoxicity at 70.5 h stood at 24.4%.
For `c1ccc(OC2COC3(CCN(CC4CC4)CC3)C2)nc1` (stereo unspecified), the cytotoxicity at 70.5 h turned out to be 2.65%.
As for `Cn1ncc2c1CN(C(=O)Cc1ccccn1)CC2COCC1CC1` (stereo unspecified), the cytotoxicity at 70.5 h was -10.6%.
Under `CCn1ncc2c1CN(C(=O)Cc1ccccn1)CC2COC` (stereo unspecified) stands -3.07%.
`Cc1cnc(N2CC[C@@H]3O[C@H](COCc4ccccn4)CC[C@@H]32)nc1`: the cytotoxicity at 70.5 h is -1.58%.
The same measure for `c1ccc(COC[C@H]2CC[C@H]3[C@H](CCN3c3ncccn3)O2)nc1`: -3.8%.
With `c1ccc(O[C@H]2CO[C@@]3(CCN(Cc4ccc5c(c4)OCO5)C3)C2)nc1`, the cytotoxicity at 70.5 h is 0.478%.
The same measure for `O=C(NCc1cccnc1)[C@H]1CC[C@@H]2[C@@H](CCN2c2ncccn2)O1`: -6.01%.
On to `O=C(c1ccco1)N1CC[C@@H](N2CCOCC2)[C@@H]1Cc1ccncc1`, for which the cytotoxicity at 70.5 h is -4.82%.
The same measure for `Cc1ccc(N2CCO[C@H]3CN(Cc4ccoc4)C[C@H]32)nn1`: 6.75%; for `CN(Cc1cccnc1)C1CC2(CCN(Cc3ccccn3)CC2)C1`: -11.6%; for `CN(Cc1ccco1)[C@@H]1CN(Cc2cccnc2)[C@@H]2CCCO[C@H]12`: -12.5%.
Under `c1cc(COC[C@]23COC[C@H]2CN(Cc2ccncc2)C3)ccn1` stands 9.04%; under `c1ccc(CN2CCC3(CC2)CCN(Cc2cccnc2)C3)nc1`, -9.45%.
